Test results reported in patent publication US5795907A, “Gastin and CCK receptor ligands” (James Black Foundation Limited, priority 1994, dated 1998).

How the values were obtained:
[1] = target: T1, CCKB receptor (Mus musculus, UniProt P56481); test: CCKB receptor radioligand binding assay in mouse cortical membranes ([125I]-CCK8S); conditions: [125I]-CCK8S 200 pM, 150 min at 21±3°; for Ki: read-out: CCKB pKi (converted)
T1 construct: The cortex was dissected, weighed and homogenised in 40ml ice-cold buffer; tissue Charles River (supplier of the CD1 mice); host or cells: cerebral cortex membranes of male CD1 mice
T1 sequence (P56481 1-453): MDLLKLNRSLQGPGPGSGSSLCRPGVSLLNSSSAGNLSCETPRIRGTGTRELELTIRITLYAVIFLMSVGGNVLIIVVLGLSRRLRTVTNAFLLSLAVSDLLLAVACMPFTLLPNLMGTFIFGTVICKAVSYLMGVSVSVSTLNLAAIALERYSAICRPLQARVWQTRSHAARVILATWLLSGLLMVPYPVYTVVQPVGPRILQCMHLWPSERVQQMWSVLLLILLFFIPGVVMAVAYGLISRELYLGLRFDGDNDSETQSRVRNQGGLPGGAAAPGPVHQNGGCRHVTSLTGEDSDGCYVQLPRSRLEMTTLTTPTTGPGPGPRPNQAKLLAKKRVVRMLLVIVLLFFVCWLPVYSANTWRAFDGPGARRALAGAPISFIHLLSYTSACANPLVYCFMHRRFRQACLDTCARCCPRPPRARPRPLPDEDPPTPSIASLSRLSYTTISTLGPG
In short: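 This was competition binding with tracer [125I]-CCK8S (200 pM solution added), run for 150 min at 21±3° on male CD1 mouse cortex membranes in pH 7.2 HEPES buffer with bacitracin. Filtration then gamma counting gave bound radioactivity. L-365,260 set the non-specific level.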

[2] = target: T2, CCKA (Cavia porcellus, UniProt Q63931); test: CCKA radioligand binding assay in guinea-pig pancreas membranes ([125I]-CCK8(S)); conditions: PD134,308 present, 150 minutes at 21±3°; for Ki: read-out: CCKA pKi (converted)
T2 construct: The pancreatata were homogenised in 40 ml ice-cold HEPES buffer using a polytron; from tissue; host or cells: pancreas membranes of male Dunkin Hartley guinea-pigs
T2 sequence (Q63931 1-430): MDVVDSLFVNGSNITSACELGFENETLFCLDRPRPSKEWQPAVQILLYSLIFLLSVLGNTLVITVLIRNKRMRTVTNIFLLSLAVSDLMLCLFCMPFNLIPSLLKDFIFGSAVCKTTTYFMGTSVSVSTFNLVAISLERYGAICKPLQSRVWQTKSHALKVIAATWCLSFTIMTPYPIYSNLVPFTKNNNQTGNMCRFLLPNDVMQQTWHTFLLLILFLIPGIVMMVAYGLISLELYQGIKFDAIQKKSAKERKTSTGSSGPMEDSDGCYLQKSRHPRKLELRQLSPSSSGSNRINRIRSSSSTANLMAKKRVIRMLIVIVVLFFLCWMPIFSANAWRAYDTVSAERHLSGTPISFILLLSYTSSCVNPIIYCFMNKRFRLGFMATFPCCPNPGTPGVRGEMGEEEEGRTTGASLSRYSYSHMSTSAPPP
In short: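 Competition for [125I]-CCK8(S) (added as […] solution) ran for 150 min at 21±3° in HEPES pH 7.2. Membranes came from male guinea-pig pancreas at 1 mg/ml original wet weight, with 0.375 μM PD134,308 in the suspension. Filter-bound counts were gamma-counted; 100 nM L-364,718 (added solution) defined non-specific binding.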

[3] = target: T3, gastrin (Rattus norvegicus, UniProt P30553); test: gastrin antagonist activity in an immature rat stomach assay (pentagastrin-stimulated acid secretion); conditions: cumulative pentagastrin dose-response curves after 60 min with drug; for Kb: read-out: Gastrin pKB (converted)
T3 construct: The stomach was lowered into a jacketed organ bath containing 40 ml of buffered solution; from tissue; host or cells: isolated perfused whole stomach of immature rats (ca. 21 days old)
T3 sequence (P30553 1-452): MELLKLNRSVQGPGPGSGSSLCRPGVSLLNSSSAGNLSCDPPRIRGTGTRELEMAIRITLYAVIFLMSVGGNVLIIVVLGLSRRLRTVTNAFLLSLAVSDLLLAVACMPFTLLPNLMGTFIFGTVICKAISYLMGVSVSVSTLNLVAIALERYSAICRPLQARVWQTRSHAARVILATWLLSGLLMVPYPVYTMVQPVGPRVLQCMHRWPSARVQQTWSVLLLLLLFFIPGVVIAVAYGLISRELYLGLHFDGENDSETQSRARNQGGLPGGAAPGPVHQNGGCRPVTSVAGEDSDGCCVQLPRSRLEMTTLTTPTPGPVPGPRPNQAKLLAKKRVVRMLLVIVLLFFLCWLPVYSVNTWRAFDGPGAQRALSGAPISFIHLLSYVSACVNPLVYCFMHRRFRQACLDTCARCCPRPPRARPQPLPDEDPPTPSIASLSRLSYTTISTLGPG
In short: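 Isolated lumen-perfused immature rat stomach (33-50 g, ca. 21 days) in 37° organ bath with 3×10^-8 M 5-methylfurmethide; acid secretion read by pH electrode in perfusate. Compound added to serosal bath after 120 min stabilisation; cumulative pentagastrin dose-response curves begun 60 min later and analysed by the Black et al. method.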

Row | CCKB pKi [1] | CCKA pKi [2] | Gastrin pKB [3] | Ki [1] [nM] | Ki [2] [nM] | Kb [3] [nM] | Molecule
1 | 8.3 | 5.4 | 9.1 |  |  |  | 5-(1S-(3,5-dicarboxyphenylaminocarbonyl)-2-phenylethylaminocarbonyl)-6-(1-adamantanemethylaminocarbonyl)-benzofuran [Example 122]
2 |  |  |  | 316 | 7940 | 79.4 | O=C(O)c1cc(NC(=O)[C@H](Cc2c[nH]cn2)NC(=O)c2cc3[nH]cnc3cc2C(=O)NCC23CC4CC(CC(C4)C2)C3)cc(C(=O)O)c1 [Example 69, 5-(1S-(3,5-dicarboxyphenylaminocarbonyl)-2-(2,4-imidazolyl)ethylaminocarbonyl)-6-(1-adamantanemethylaminocarbonyl)-benzimidazole]
3 | 8.1 | < 5.0 | 8.2 |  |  |  | O=C(O)c1cc(NC(=O)[C@H](Cc2ccccc2)NC(=O)c2ccc3[nH]cnc3c2C(=O)NCC23CC4CC(CC(C4)C2)C3)cc(C(=O)O)c1 [Example 112, 5-(1S-(3,5-dicarboxyphenylaminocarbonyl)-2-phenylethylaminocarbonyl)-4-(1-adamantanemethylaminocarbonyl)-benzimidazole]
4 |  |  |  | 251 | > 10000 | 100 | O=C(O)c1cc(NC(=O)[C@@H]2CCCN2C(=O)c2cc3[nH]cnc3cc2C(=O)NCC23CC4CC(CC(C4)C2)C3)cc(C(=O)O)c1 [Example 77, 5-(2S-(3,5-dicarboxyphenylaminocarbonyl)-pyrrolidinocarbonyl)-6-(1-adamantanemethylaminocarbonyl)-benzimidazole]
5 |  |  |  | 12.6 | 398 | 31.6 | O=C(NCC12CC3CC(CC(C3)C1)C2)c1cc2[nH]ccc2cc1C(=O)N[C@@H](Cc1ccccc1)C(=O)Nc1cccc(-c2nn[nH]n2)c1 [Example 100, 5-(1S-(3-tetrazolylphenylaminocarbonyl)-2-phenylethylaminocarbonyl)-6-(1-adamantanemethylaminocarbonyl)-indole]
6 | 7.0 | 5.2 | 7.8 |  |  |  | CN(O)C(=O)c1cc(NC(=O)[C@H](Cc2ccccc2)NC(=O)c2cc3cc[nH]c3cc2C(=O)NCC23CC4CC(CC(C4)C2)C3)cc(C(=O)N(C)O)c1 [Example 103, 5-(1S-(3,5-dihydroxy-N-(methyl)aminocarbonylphenylaminocarbonyl)-2-phenylethylaminocarbonyl)-6-(1-adamantanemethylaminocarbonyl)-indole]

Row | Molecule | CCKB pKi [1] | CCKA pKi [2] | Gastrin pKB [3] | Ki [1] [nM] | Ki [2] [nM] | Kb [3] [nM]
7 | CC(=O)Oc1cc(OC(C)=O)c2cc(C(=O)NCC34CC5CC(CC(C5)C3)C4)c(C(=O)N[C@@H](Cc3ccccc3)C(=O)Nc3cc(C(=O)O)cc(C(=O)O)c3)cc2c1 [Example 54, 2-(1S-(3,5-dicarboxyphenylaminocarbonyl)-2-phenylethylaminocarbonyl)-3-(1-adamantanemethylaminocarbonyl)-5,7-diacetoxy-naphthalene] | 8.1 | 5.9 | 8.1 |  |  | 
